According to PubChem BioAssay AID212 (DTP/NCI, 2004):
“And” between values parts separate entries of the source, which are not always exact repeats. Equal entries are not always repeated. Records with an inconclusive call do not appear.

Test system: BDF1 mice, colon carcinoma 38 sc, T/C %
Assay: NCI In Vivo Anticancer Drug Screen. Data for tumor model Colon Carcinoma 38 (subcutaneous) in B6D2F1 (BDF1) mice
Conditions: endpoint: median tumor weight (est.), schedule: Q07DX002 (ip), higher = larger tumour
Method: The antitumor activity of compounds was measured in mice bearing transplantable tumors. Survival or tumor size were measured and the results are expressed as the measurement made in the treated group (T) divided by the measurement made in the vehicle treated control group (C). The tumor model used in this assay is Colon Carcinoma 38 (subcutaneous) in B6D2F1 (BDF1) mice

[1] = dose: 100.0 mg/kg/injection, vehicle: saline with Tween-80
[2] = dose: 200.0 mg/kg/injection, vehicle: saline with Tween-80
[3] = dose: 400.0 mg/kg/injection, vehicle: saline with Tween-80
[4] = dose: 50.0 mg/kg/injection, vehicle: saline
[5] = dose: 100.0 mg/kg/injection, vehicle: saline

CCOC(OCC)C(=O)OCC(=O)[C@]1(O)Cc2c(O)c3c(c(O)c2[C@@H](OC2CC(N)C(O)C(C)O2)C1)C(=O)c1c(OC)cccc1C3=O (stereo not given in full)
T/C (dose: 0.5 mg/kg/injection, vehicle: water): 85 % of control | T/C (dose: 2.0 mg/kg/injection, vehicle: water): 107 % of control | T/C (dose: 4.0 mg/kg/injection, vehicle: water): 88 % of control

NC(=S)N/N=C\c1ncccc1OCc1cccc(N)c1
T/C (dose: 25.0 mg/kg/injection, vehicle: distilled water + Tween-80): 80 % of control | T/C (dose: 50.0 mg/kg/injection, vehicle: distilled water + Tween-80): 79 % of control | T/C (dose: 100.0 mg/kg/injection, vehicle: distilled water + Tween-80): 78 % of control | T/C (dose: 200.0 mg/kg/injection, vehicle: distilled water + Tween-80): 71 % of control | T/C (dose: 400.0 mg/kg/injection, vehicle: distilled water + Tween-80): 80 % of control

CCCCCC1c2cc(O)ccc2OC1N1CCOCC1 (stereo not given)
T/C (dose: 12.0 mg/kg/injection, vehicle: saline with Tween-80): 107 % of control | T/C (dose: 25.0 mg/kg/injection, vehicle: saline with Tween-80): 161 % of control | T/C [1]: 169 % of control | T/C [2]: 55 % of control | T/C [3]: 170 % of control | T/C (dose: 450.0 mg/kg/injection, vehicle: saline with Tween-80): 120 % of control | T/C (dose: 900.0 mg/kg/injection, vehicle: saline with Tween-80): 154 % of control

COC(=O)C1(F)C(=O)NC(=O)NC1OC (stereo not given)
T/C (dose: 100.0 mg/kg/injection, vehicle: Klucel (hydroxypropylcellulose) (HPC)): 90 % of control | T/C [1]: 83 % of control | T/C (dose: 200.0 mg/kg/injection, vehicle: Klucel (hydroxypropylcellulose) (HPC)): 72 % of control | T/C [2]: 83 % of control | T/C [3]: 55 % of control | T/C (dose: 800.0 mg/kg/injection, vehicle: saline with Tween-80): 85 % of control

c1ccc2c(c1)[As]=c1ccccc1=[As]2 (stereo not given)
T/C (dose: 3.0 mg/kg/injection, vehicle: saline): 124 % of control

CN(CCN(C)C(=O)CCOS(C)(=O)=O)C(=O)CCOS(C)(=O)=O
T/C [4]: 75 % of control and 94 % of control | T/C [5]: 48 % of control and 63 % of control | T/C (dose: 200.0 mg/kg/injection, vehicle: saline): 25 % of control and 43 % of control

O=NN(CCCl)C(=O)Oc1ccc(OC(=O)N(CCCl)N=O)cc1
T/C (dose: 6.25 mg/kg/injection, vehicle: Klucel (hydroxypropylcellulose) (HPC)): 75 % of control | T/C (dose: 12.5 mg/kg/injection, vehicle: Klucel (hydroxypropylcellulose) (HPC)): 72 % of control | T/C (dose: 25.0 mg/kg/injection, vehicle: Klucel (hydroxypropylcellulose) (HPC)): 85 % of control | T/C (dose: 50.0 mg/kg/injection, vehicle: Klucel (hydroxypropylcellulose) (HPC)): 54 % of control

O=C(Nc1ccccc1)c1c(O)[nH]c(=S)[nH]c1=O
T/C (dose: 112.0 mg/kg/injection, vehicle: saline with Tween-80): 68 % of control | T/C (dose: 225.0 mg/kg/injection, vehicle: saline with Tween-80): 51 % of control

CC[N](CC)[Ge]([CH2]C)[CH2]C.CC[N](CC)[Ge]([CH2]C)[CH2]C
T/C (dose: 6.25 mg/kg/injection, vehicle: saline): 87 % of control | T/C (dose: 6.25 mg/kg/injection, vehicle: suspension in saline): 77 % of control | T/C (dose: 12.5 mg/kg/injection, vehicle: saline): 77 % of control | T/C (dose: 12.5 mg/kg/injection, vehicle: suspension in saline): 69 % of control | T/C (dose: 25.0 mg/kg/injection, vehicle: saline): 79 % of control | T/C (dose: 25.0 mg/kg/injection, vehicle: suspension in saline): 95 % of control | T/C [4]: 77 % of control | T/C (dose: 50.0 mg/kg/injection, vehicle: suspension in saline): 84 % of control | T/C [5]: 61 % of control
